Assays:
[1] = Bulk density, tap density and compressibility of powders; type: physicochemical; conditions: major component of Example 15 blend
[2] = dosed either orally or directly into the colon of a mammal; cited from earlier work
[3] = clinical trials (Gerson et al. 2009); cited from earlier work
[4] = FLODEX powder flowability (Flodex); type: physicochemical; conditions: for Flowdex: crystalline compound (1) lot, Table 2; for Flodex: neat powder, listed as Compound (1)
Description: The flow of dry powders was characterized using a FLODEX™ Powder Flowability Index Test Instrument (Hanson Research Corporation, Chatsworth, Calif.). The instrument was equipped with a cylindrical metal reservoir, which holds the test powder prior to flow testing. The cylindrical reservoir has an inside diameter of 5.7 cm and a length of […]. The bottom end of the reservoir can be closed with removable metal discs. Each disc has a round orifice centered in the disc. Orifice diameters range from 4 mm to 10 mm in 1 mm increments, and from 10 mm to 34 mm in 2 mm increments. Prior to flow testing, the orifice is blocked. Powder is then placed over the blocked orifice. When the orifice is unblocked, powder can flow through the orifice under the force of gravity if the orifice diameter is sufficiently large. Powder that flows through small orifices is considered to have flow properties useful for tableting. For example, a Flodex measurement (Flodex) of less than about 24 mm is […] high-speed tableting operations at commercial scale. A Flodex less than about 20 mm is useful for high-speed tableting operations. A Flodex of 18 mm or less is considered especially useful for high speed tableting operations.
The Flodex is determined by first gently filling the reservoir with approximately 70 cc of test powder while the orifice at the bottom is blocked, while avoiding severe piling, and without vibrating or tapping the powder bed. Next, the orifice is unblocked. This can be accomplished by opening a shutter that is supplied with the instrument. Alternatively, if a shutter is not used, the powder-filled reservoir fitted with a disc can be set on a dry, flat surface to block the orifice. Then, slowly and evenly, the reservoir is lifted to allow the powders to flow. In either procedure, if the powder flows through the orifice, a clear channel is left within the powder bed. […] The flow test is conducted with various orifice sizes until the minimum orifice size for good flow is identified, which is referred to as the Flodex.

[5] = Particle size of compound (1) lots, wet and dry method; type: physicochemical

| Bulk Density [1] [g/cc] | Flowdex [4] [mm] | Flodex ([4]; Lot 4) [mm] | Particle size, Dry method, dv0.5 [5] [μm] | Particle size, Dry method, dv0.9 [5] [μm] | Particle size, Wet method, dv0.5 [5] [μm] | Particle size, Wet method, dv0.9 [5] [μm] | Flodex ([4]; Lot 70) [mm] | Flodex ([4]; Lot 71) [mm] | Structure (SMILES) | bioavailability as R-baclofen [2] | reflux episodes [3] |
| --- | --- | --- | --- | --- | --- | --- | --- | --- | --- | --- | --- |
| 0.15 |  |  |  |  |  |  |  |  | CC(C)C(=O)O[C@@H](OC(=O)NC[C@H](CC(=O)O)c1ccc(Cl)cc1)C(C)C [Compound (1), (3R)-4-{[(1S)-2-Methyl-1-(2-methylpropanoyloxy)propoxy]carbonylamino}-3-(4-chlorophenyl)butanoic acid] | high bioavailability | reduce reflux episodes |
|  | 23 | 24 | 11.09 | 102 | 3.35 | 40.47 |  |  | CC(C)C(=O)O[C@@H](OC(=O)NC[C@H](CC(=O)O)c1ccc(Cl)cc1)C(C)C [Lot 4, (3R)-4-{[(1S)-2-Methyl-1-(2-methylpropanoyloxy)propoxy]carbonylamino}-3-(4-chlorophenyl)butanoic acid] |  |  |
|  | 26 |  | 27.53 | 106.87 | 4.81 | 37.2 | 26 |  | CC(C)C(=O)O[C@@H](OC(=O)NC[C@H](CC(=O)O)c1ccc(Cl)cc1)C(C)C [Lot 70, (3R)-4-{[(1S)-2-Methyl-1-(2-methylpropanoyloxy)propoxy]carbonylamino}-3-(4-chlorophenyl)butanoic acid] |  |  |
|  | 26 |  | 17.64 | 107.48 | 22.17 | 63.02 |  | 26 | CC(C)C(=O)O[C@@H](OC(=O)NC[C@H](CC(=O)O)c1ccc(Cl)cc1)C(C)C [Lot 71, (3R)-4-{[(1S)-2-Methyl-1-(2-methylpropanoyloxy)propoxy]carbonylamino}-3-(4-chlorophenyl)butanoic acid] |  |  |

Source: patent US10071068B2, “Sustained release oral dosage forms of an R-baclofen prodrug” (XENOPORT, INC., priority 2009, dated 2018)
